Data as given in ChEMBL document CHEMBL1201861, “Genomics of Drug Sensitity in Cancer screening data, Wellcome Trust Sanger Institute”.
Several values for one entry are separate records, joined by “and”; a condition that tells them apart may be missing. Equal values may be shown once.

What was measured:
MES-SA = experiment: cells; format: functional, cell-based, Homo sapiens;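 also: growth inhibition of human MES-SA cells, read out with a cell viability assay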
Description: SANGER: Inhibition of human MES-SA cell growth in a cell viability assay.

CHP-126 = experiment: cells; format: functional, cell-based; settings: Homo sapiens
Description: SANGER: Inhibition of human CHP-126 cell growth in a cell viability assay.

Calu-1 = experiment: SANGER: Inhibition of human Calu-1 cell growth in a cell viability assay.; format: functional, cell-based
SNU-475 = experiment: cells; format: functional, cell-based; settings: Homo sapiens
Description: SANGER: Inhibition of human SNU-475 cell growth in a cell viability assay.

MDA-MB-468 = experiment: cells; format: functional, cell-based; settings: Homo sapiens
Description: SANGER: Inhibition of human MDA-MB-468 cell growth in a cell viability assay.

NCI-H1734 = experiment: cells; format: functional, cell-based; settings: Homo sapiens;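 also: growth inhibition of human NCI-H1734 cells, read out with a cell viability assay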
Description: SANGER: Inhibition of human NCI-H1734 cell growth in a cell viability assay.

NCI-H2081 = experiment: cells; format: functional, cell-based; settings: Homo sapiens;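 also: growth inhibition of human NCI-H2081 cells, read out with a cell viability assay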
Description: SANGER: Inhibition of human NCI-H2081 cell growth in a cell viability assay.

SCC-3 = experiment: cells; format: functional, cell-based; settings: Homo sapiens;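 also: cell viability assay measuring inhibition of SCC-3 cell growth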
Description: SANGER: Inhibition of human SCC-3 cell growth in a cell viability assay.

MHH-CALL-2 = experiment: cells; format: functional, cell-based; settings: Homo sapiens;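 also: growth inhibition of the cell line, read out in a cell viability assay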
Description: SANGER: Inhibition of human MHH-CALL-2 cell growth in a cell viability assay.

Kasumi 1 = experiment: cells; format: functional, cell-based; settings: Homo sapiens;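 also: growth inhibition of human Kasumi-1 cells, read out by a cell viability assay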
Description: SANGER: Inhibition of human KASUMI-1 cell growth in a cell viability assay.

RT-4 = experiment: SANGER: Inhibition of human RT4 cell growth in a cell viability assay.; format: functional, cell-based
SNU-16 = experiment: cells; format: functional, cell-based; settings: Homo sapiens;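 also: growth inhibition of human SNU-16 cells, determined with a cell viability readout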
Description: SANGER: Inhibition of human NCI-SNU-16 cell growth in a cell viability assay.

EFE-184 = experiment: cells; format: functional, cell-based; settings: Homo sapiens
Description: SANGER: Inhibition of human EFE-184 cell growth in a cell viability assay.

BOKU = experiment: cells; format: functional, cell-based; settings: Homo sapiens;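 also: growth inhibition of the human BOKU cell line, read out by a cell viability assay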
Description: SANGER: Inhibition of human BOKU cell growth in a cell viability assay.

CA46 = experiment: cells; format: functional, cell-based; settings: Homo sapiens;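 also: growth inhibition of human CA46 cells, read out by a cell viability assay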
Description: SANGER: Inhibition of human CA46 cell growth in a cell viability assay.

NCI-H630 = experiment: cells; format: functional, cell-based, Homo sapiens;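 also: growth inhibition of NCI-H630 cells, read out with a cell viability assay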
Description: SANGER: Inhibition of human NCI-H630 cell growth in a cell viability assay.

ECC12 = experiment: cells; format: functional, cell-based; settings: Homo sapiens
Description: SANGER: Inhibition of human ECC12 cell growth in a cell viability assay.

OC-314 = experiment: cells; format: functional, cell-based; settings: Homo sapiens
Description: SANGER: Inhibition of human OC-314 cell growth in a cell viability assay.

TT = experiment: cells; format: functional, cell-based; settings: Homo sapiens
Description: SANGER: Inhibition of human TT cell growth in a cell viability assay.

MFE-296 = experiment: SANGER: Inhibition of human MFE-296 cell growth in a cell viability assay.; format: functional, cell-based
NCI-H1618 = experiment: cells; format: functional, cell-based; settings: Homo sapiens;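 also: growth inhibition of human NCI-H1618 cells, measured by a cell viability assay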
Description: SANGER: Inhibition of human NCI-H1618 cell growth in a cell viability assay.

PLC-PRF-5 = experiment: cells; format: functional, cell-based; settings: Homo sapiens;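 also: growth inhibition of human PLC-PRF-5 cells, read out with a viability assay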
Description: SANGER: Inhibition of human PLC-PRF-5 cell growth in a cell viability assay.

SK-CO-1 = experiment: cells; format: functional, cell-based; settings: Homo sapiens;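 also: growth inhibition of SK-CO-1 cells, determined by a viability readout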
Description: SANGER: Inhibition of human SK-CO-1 cell growth in a cell viability assay.

LOUCY = experiment: cells; format: functional, cell-based; settings: Homo sapiens;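 also: growth inhibition of human LOUCY cells, read out with a cell viability assay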
Description: SANGER: Inhibition of human LOUCY cell growth in a cell viability assay.

SNU-423 = experiment: cells; format: functional, cell-based, Homo sapiens
Description: SANGER: Inhibition of human SNU-423 cell growth in a cell viability assay.

NCI-H1522 = experiment: cells; format: functional, cell-based; settings: Homo sapiens;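 also: growth inhibition of NCI-H1522 cells, read out with a cell viability assay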
Description: SANGER: Inhibition of human NCI-H1522 cell growth in a cell viability assay.

SNU-C1 = experiment: cells; format: functional, cell-based; settings: Homo sapiens;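 also: growth inhibition of SNU-C1 human cells, read out by a cell viability assay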
Description: SANGER: Inhibition of human SNU-C1 cell growth in a cell viability assay.

EVSA-T = experiment: cells; format: functional, cell-based, Homo sapiens;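 also: growth inhibition of EVSA-T cells, read out with a cell viability assay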
Description: SANGER: Inhibition of human EVSA-T cell growth in a cell viability assay.

SU-DHL-1 = experiment: SANGER: Inhibition of human SU-DHL-1 cell growth in a cell viability assay.; format: functional, cell-based
IPC-298 = experiment: SANGER: Inhibition of human IPC-298 cell growth in a cell viability assay.; format: functional, cell-based
DMS-53 = experiment: cells; format: functional, cell-based, Homo sapiens;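 also: cell viability assay measuring growth inhibition of human DMS-53 cells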
Description: SANGER: Inhibition of human DMS-53 cell growth in a cell viability assay.

C-4-II = experiment: SANGER: Inhibition of human C-4-II cell growth in a cell viability assay.; format: functional, cell-based
JIYOYE = experiment: cells; format: functional, cell-based; settings: Homo sapiens
Description: SANGER: Inhibition of human JiyoyeP-2003 cell growth in a cell viability assay.

RH-18 = experiment: cells; format: functional, cell-based; settings: Homo sapiens, Rh18;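 also: growth inhibition of human RH-18 cells, read out with a cell viability assay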
Description: SANGER: Inhibition of human RH-18 cell growth in a cell viability assay.

NCI-H524 = experiment: cells; format: functional, cell-based; settings: Homo sapiens;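 also: growth inhibition of human NCI-H524 cells, read out through a cell viability assay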
Description: SANGER: Inhibition of human NCI-H524 cell growth in a cell viability assay.

Raji = experiment: cells; format: functional, cell-based; settings: Homo sapiens;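 also: cell viability assay measuring inhibition of Raji cell growth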
Description: SANGER: Inhibition of human Raji cell growth in a cell viability assay.

Caov-3 cell line = experiment: cells; format: functional, cell-based; settings: Homo sapiens;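 also: cell growth inhibition read out by a viability assay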
Description: SANGER: Inhibition of human Caov-3 cell growth in a cell viability assay.

HCC1143 = experiment: cells; format: functional, cell-based; settings: Homo sapiens;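 also: growth inhibition of human HCC1143 cells, read out with a cell viability assay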
Description: SANGER: Inhibition of human HCC1143 cell growth in a cell viability assay.

SIG-M5 = experiment: cells; format: functional, cell-based; settings: Homo sapiens;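 also: cell viability assay read-out, measuring how strongly growth of cultured human SIG-M5 cells is inhibited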
Description: SANGER: Inhibition of human SIG-M5 cell growth in a cell viability assay.

MRK-nu-1 = experiment: cells; format: functional, cell-based; settings: Homo sapiens;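 also: cell viability assay measuring growth suppression of human MRK-nu-1 cells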
Description: SANGER: Inhibition of human MRK-nu-1 cell growth in a cell viability assay.

BT-549 = experiment: cells; format: functional, cell-based; settings: Homo sapiens
Description: SANGER: Inhibition of human BT-549 cell growth in a cell viability assay.

CMK = experiment: cells; format: functional, cell-based; settings: Homo sapiens;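 also: growth inhibition of CMK cells, read out as cell viability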
Description: SANGER: Inhibition of human CMK cell growth in a cell viability assay.

NB1 = experiment: cells; format: functional, cell-based; settings: Homo sapiens;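 also: reduction of NB1 cell proliferation, read out with a viability assay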
Description: SANGER: Inhibition of human NB1 cell growth in a cell viability assay.

PF-382 = experiment: cells; format: functional, cell-based; settings: Homo sapiens
Description: SANGER: Inhibition of human PF-382 cell growth in a cell viability assay.

CESS = experiment: SANGER: Inhibition of human CESS cell growth in a cell viability assay.; format: functional, cell-based
EW-7 = experiment: SANGER: Inhibition of human EW-7 cell growth in a cell viability assay.; format: functional, cell-based
NCI-H1666 = experiment: cells; format: functional, cell-based; settings: Homo sapiens;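 also: growth inhibition of the cell line, read out with a cell viability assay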
Description: SANGER: Inhibition of human NCI-H1666 cell growth in a cell viability assay.

WSU-NHL = experiment: cells; format: functional, cell-based; settings: Homo sapiens;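 also: growth inhibition of human WSU-NHL cells, read out with a cell viability assay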
Description: SANGER: Inhibition of human WSU-NHL cell growth in a cell viability assay.

EW-22 = experiment: cells; format: functional, cell-based; settings: Homo sapiens;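 also: growth inhibition of the EW-22 cell line, measured with a cell viability readout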
Description: SANGER: Inhibition of human EW-22 cell growth in a cell viability assay.

DV-90 = experiment: cells; format: functional, cell-based; settings: Homo sapiens;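 also: Read-out is a viability assay, with IC50 reflecting the drop in DV-90 cell growth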
Description: SANGER: Inhibition of human DV-90 cell growth in a cell viability assay.

NCI-H1573 = experiment: cells; format: functional, cell-based; settings: Homo sapiens;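 also: growth inhibition of NCI-H1573 cells, read out with a cell viability assay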
Description: SANGER: Inhibition of human NCI-H1573 cell growth in a cell viability assay.

A549 = experiment: cells; format: functional, cell-based; settings: Homo sapiens;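 also: growth inhibition of A549 cells, read out with a cell viability assay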
Description: SANGER: Inhibition of human A549 cell growth in a cell viability assay.

TE-15 = experiment: cells; format: functional, cell-based; settings: Homo sapiens;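 also: cell viability readout of growth inhibition in TE-15 cells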
Description: SANGER: Inhibition of human TE-15 cell growth in a cell viability assay.

RPMI 8402 = experiment: SANGER: Inhibition of human RPMI-8402 cell growth in a cell viability assay.; format: functional, cell-based
SNG-M = experiment: cells; format: functional, cell-based; settings: Homo sapiens
Description: SANGER: Inhibition of human SNG-M cell growth in a cell viability assay.

NBsusSR = experiment: cells; format: functional, cell-based; settings: Homo sapiens;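 also: growth inhibition of the human cell line, read out with a cell viability assay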
Description: SANGER: Inhibition of human NBsusSR cell growth in a cell viability assay.

CHP-134 = experiment: SANGER: Inhibition of human CHP-134 cell growth in a cell viability assay.; format: functional, cell-based
TI-73 = experiment: cells; format: functional, cell-based; settings: Homo sapiens;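 also: cell viability assay measuring how much compounds suppress growth of the cultured cell line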
Description: SANGER: Inhibition of human TI-73 cell growth in a cell viability assay.

ZR-75-30 = experiment: cells; format: functional, cell-based; settings: Homo sapiens;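 also: growth inhibition of ZR-75-30 cells, measured with a cell viability readout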
Description: SANGER: Inhibition of human ZR-75-30 cell growth in a cell viability assay.

Cc1cc([C@@H](C)Nc2ccccc2C(=O)O)c2nc(N3CCOCC3)cc(=O)n2c1 [AZD-6482]
IC50 (MES-SA; mes-sa): > 5120 nM and 1110 nM
IC50 (CHP-126): > 5120 nM
IC50 (Calu-1): > 5120 nM
IC50 (SNU-475): > 5120 nM
IC50 (MDA-MB-468): 1540 nM
IC50 (NCI-H1734): > 5120 nM
IC50 (NCI-H2081): > 5120 nM
IC50 (SCC-3): > 5120 nM
IC50 (MHH-CALL-2): > 5120 nM
IC50 (Kasumi 1): 2060 nM
IC50 (RT-4; rt-4): > 5120 nM
IC50 (SNU-16): > 5120 nM
IC50 (EFE-184): > 5120 nM
IC50 (BOKU): > 5120 nM
IC50 (CA46): > 5120 nM
IC50 (NCI-H630; nci-h630): > 5120 nM
IC50 (ECC12): > 5120 nM
IC50 (OC-314): > 5120 nM
IC50 (TT): > 5120 nM
IC50 (MFE-296): 1570 nM
IC50 (NCI-H1618): > 5120 nM
IC50 (PLC-PRF-5): > 5120 nM
IC50 (SK-CO-1): > 5120 nM
IC50 (LOUCY): > 5120 nM
IC50 (SNU-423; snu-423): 1570 nM and > 5120 nM
IC50 (NCI-H1522): > 5120 nM
IC50 (SNU-C1): > 5120 nM
IC50 (EVSA-T; evsa-t): 3380 nM and > 5120 nM
IC50 (SU-DHL-1): 568 nM
IC50 (IPC-298): > 5120 nM
IC50 (DMS-53; Homo sapiens, DMS-53): > 5120 nM
IC50 (DMS-53; dms-53): > 5120 nM
IC50 (C-4-II): > 5120 nM
IC50 (JIYOYE): > 5120 nM
IC50 (RH-18): > 5120 nM
IC50 (NCI-H524): > 5120 nM
IC50 (Raji): > 5120 nM
IC50 (Caov-3 cell line): > 5120 nM
IC50 (HCC1143): > 5120 nM
IC50 (SIG-M5): > 5120 nM
IC50 (MRK-nu-1): > 5120 nM
IC50 (BT-549): > 5120 nM
IC50 (CMK): 4570 nM
IC50 (NB1): > 5120 nM
IC50 (PF-382): > 5120 nM
IC50 (CESS): 4800 nM
IC50 (EW-7; ew-7): 864 nM and 3110 nM
IC50 (NCI-H1666): > 5120 nM
IC50 (WSU-NHL): > 5120 nM
IC50 (EW-22): > 5120 nM
IC50 (DV-90): > 5120 nM
IC50 (NCI-H1573): > 5120 nM
IC50 (A549): > 5120 nM
IC50 (TE-15): 4670 nM
IC50 (RPMI 8402): > 5120 nM
IC50 (SNG-M): > 5120 nM

COc1cc([C@@H]2c3cc4c(cc3[C@@H](O[C@@H]3O[C@@H]5CO[C@@H](C)O[C@H]5[C@H](O)[C@H]3O)[C@H]3COC(=O)[C@H]23)OCO4)cc(OC)c1O [ETOPOSIDE]
IC50 (MES-SA; Homo sapiens, MES-SA): 458 nM
IC50 (CHP-126): 6270 nM
IC50 (Calu-1): 7890 nM
IC50 (SNU-475): > 16000 nM
IC50 (MDA-MB-468): 1470 nM
IC50 (NCI-H1734): 1510 nM
IC50 (NCI-H2081): 4920 nM
IC50 (SCC-3): 1210 nM
IC50 (MHH-CALL-2): > 16000 nM
IC50 (Kasumi 1): 1320 nM
IC50 (RT-4; Homo sapiens, RT-4): > 16000 nM
IC50 (SNU-16): > 16000 nM
IC50 (EFE-184): > 16000 nM
IC50 (BOKU): 1630 nM
IC50 (CA46): > 16000 nM
IC50 (NCI-H630; Homo sapiens, NCI-H630): 9120 nM
IC50 (ECC12): 954 nM
IC50 (TT): > 16000 nM
IC50 (MFE-296): 763 nM
IC50 (NCI-H1618): > 16000 nM
IC50 (PLC-PRF-5): > 16000 nM
IC50 (SK-CO-1): 1630 nM
IC50 (LOUCY): 177 nM
IC50 (SNU-423; Homo sapiens, SNU-423): 1750 nM
IC50 (NCI-H1522): > 16000 nM
IC50 (SNU-C1): > 16000 nM
IC50 (EVSA-T; Homo sapiens, EVSA-T): > 16000 nM
IC50 (SU-DHL-1): 959 nM
IC50 (IPC-298): 4330 nM
IC50 (DMS-53; Homo sapiens, DMS-53): > 16000 nM
IC50 (C-4-II): 1710 nM
IC50 (JIYOYE): 2540 nM
IC50 (NCI-H524): > 16000 nM
IC50 (Raji): 8320 nM
IC50 (Caov-3 cell line): > 16000 nM
IC50 (HCC1143): > 16000 nM
IC50 (SIG-M5): 131 nM
IC50 (MRK-nu-1): 116 nM
IC50 (CMK): 2680 nM
IC50 (NB1): 10200 nM
IC50 (PF-382): 724 nM
IC50 (CESS): 384 nM
IC50 (EW-7; Homo sapiens, EW-7): 125 nM
IC50 (WSU-NHL): 4360 nM
IC50 (DV-90): > 16000 nM
IC50 (TE-15): 960 nM
IC50 (RPMI 8402): 271 nM
IC50 (SNG-M): 1160 nM

CC(=O)O[C@@H]1[C@@H](OC(C)=O)[C@@H](O)[C@H](Oc2c(-c3ccc(O)cc3)oc3cc(O)cc(O)c3c2=O)O[C@H]1C
IC50 (NBsusSR): > 10000 nM
IC50 (NCI-H630; Homo sapiens, NCI-H630): > 10000 nM
IC50 (OC-314): > 10000 nM
IC50 (CHP-134): > 10000 nM
IC50 (TI-73): > 10000 nM
IC50 (RH-18): > 10000 nM
IC50 (BT-549): > 10000 nM
IC50 (NCI-H1666): > 10000 nM
IC50 (EW-22): > 10000 nM
IC50 (NCI-H1573): > 10000 nM
IC50 (ZR-75-30): > 10000 nM
IC50 (A549): > 10000 nM

CCC1=C[C@@H]2CN(C1)Cc1c([nH]c3ccccc13)[C@@](C(=O)OC)(c1cc3c(cc1OC)N(C)[C@H]1[C@@](O)(C(=O)OC)[C@H](OC(C)=O)[C@]4(CC)C=CCN5CC[C@]31[C@@H]54)C2 [VINORELBINE]
IC50 (MES-SA; Homo sapiens, MES-SA): 3.11 nM
IC50 (CHP-126): > 64 nM
IC50 (Calu-1): > 64 nM
IC50 (SNU-475): > 64 nM
IC50 (MDA-MB-468): 7.14 nM
IC50 (NCI-H1734): 14.1 nM
IC50 (NCI-H2081): 33.6 nM
IC50 (SCC-3): > 64 nM
IC50 (MHH-CALL-2): > 64 nM
IC50 (Kasumi 1): 17.7 nM
IC50 (RT-4; Homo sapiens, RT-4): > 64 nM
IC50 (SNU-16): 38.6 nM
IC50 (EFE-184): > 64 nM
IC50 (BOKU): > 64 nM
IC50 (CA46): 22.2 nM
IC50 (NCI-H630; Homo sapiens, NCI-H630): 45.5 nM
IC50 (ECC12): 0.509 nM
IC50 (TT): > 64 nM
IC50 (MFE-296): 5.99 nM
IC50 (NCI-H1618): > 64 nM
IC50 (PLC-PRF-5): > 64 nM
IC50 (SK-CO-1): 8.5 nM
IC50 (LOUCY): 9.69 nM
IC50 (SNU-423; Homo sapiens, SNU-423): 5.54 nM
IC50 (NCI-H1522): > 64 nM
IC50 (SNU-C1): > 64 nM
IC50 (EVSA-T; Homo sapiens, EVSA-T): > 64 nM
IC50 (SU-DHL-1): 9.45 nM
IC50 (IPC-298): 36.6 nM
IC50 (DMS-53; Homo sapiens, DMS-53): > 64 nM
IC50 (C-4-II): 23 nM
IC50 (JIYOYE): 10.7 nM
IC50 (NCI-H524): > 64 nM
IC50 (Raji): > 64 nM
IC50 (Caov-3 cell line): > 64 nM
IC50 (HCC1143): > 64 nM
IC50 (SIG-M5): 2.48 nM
IC50 (MRK-nu-1): 4.47 nM
IC50 (CMK): 13.7 nM
IC50 (NB1): 26.1 nM
IC50 (PF-382): 11.7 nM
IC50 (CESS): 5.04 nM
IC50 (EW-7; Homo sapiens, EW-7): 16.7 nM
IC50 (WSU-NHL): 33.7 nM
IC50 (DV-90): 34.5 nM
IC50 (TE-15): 3.1 nM
IC50 (RPMI 8402): 12.3 nM
IC50 (SNG-M): 3.88 nM
